Data as given in patent US20240103011A1, “LIQUID BIOPSY YIELD ENHANCEMENT” (priority 2021, published 2024).
Like-named read-outs stand apart in the source and are kept apart here.

What was measured:
HSC = settings: in vivo; cited from earlier work
T cell lymphoma = settings: T cell lymphoma/Partial remission
Description: (§1) A sample from the subjects is collected at the time of diagnosis (“baseline sample”) and analyzed for tumor mutational burden (TMB) and microsatellite instability (MSI). Subjects are then administered a single dose of plerixafor (10-20 mg), a single dose of motixafortide (0.5-2 mg/kg), a single dose of MGTA-145 (0.0075-0.3 mg/kg), or a single dose of MGTA-145 (0.0075-0.3 mg/kg) in combination with a single dose of plerixafor (0.24 mg/kg), and blood sample collected 1-72 hours later. This blood sample (“LBYE+ sample”) is analyzed for TMB and MSI.
(§2) The change/difference of biomarker detected in the LBYE+ sample and the baseline sample is used by a clinician to predict treatment response and/or make treatment decision.

Colon Cancer = settings: Colon Cancer/Relapse
Description: as §1, §2

Q: Which HSC mobilization (HSC) does the source give for `c1cc(CN2CCCNCCNCCCNCC2)ccc1CN1CCCNCCNCCCNCC1` [Plerixafor, 1-{[4-(1,4,8,11-tetrazacyclotetradec-1-ylmethyl)phenyl]methyl}-1,4,8,11-tetrazacyclotetradecane] here?
A: rapidly mobilize HSC within hours

Q: What about the “VAF, LBYE+ Sample Status” value (T cell lymphoma; TET2, baseline 23.80%) of the same molecule?
A: 20.20%

Q: And the “Genomic variants, LBYE+ Sample Status” value (T cell lymphoma; after intervening agent, baseline TET2)?
A: TET2

Q: What about the “TMB, LBYE+ Sample Status” value (T cell lymphoma; baseline 0.4 m/MB) of the same molecule?
A: 0.5 m/MB

Q: What about the “MSI, LBYE+ Sample Status” value (T cell lymphoma; baseline Stable) of the same molecule?
A: Stable

Q: What about the “VAF, LBYE+ Sample Status” value (Colon Cancer; APC, baseline 7.80%) of the same molecule?
A: 7.30%

Q: What about the “VAF, LBYE+ Sample Status” value (Colon Cancer; TP53, baseline 6.30%) of the same molecule?
A: 6.30%

Q: And the “TMB, LBYE+ Sample Status” value (Colon Cancer; baseline 0.5 m/MB)?
A: 1.1 m/MB

Q: And the “MSI, LBYE+ Sample Status” value (Colon Cancer; baseline Stable)?
A: Stable
